This is an account of results in patent US20220125051A1, “PRE-HARVEST DESICCATION METHOD” (SYNGENTA CROP PROTECTION AG, priority 2019, published 2022).

Structures are written as SMILES. Where “and” joins values, the source holds several entries; their conditions need not be identical. Identical values can stand only once.

What all share (assay type): in vivo
In assay [1] the test system is Amaranthus palmeri (AMAPA). Description: Post-emergence efficacy, Method C. Particulars: 400 g/Ha, evaluated at 21 days, 100=total damage to plant, 0=no damage. The procedure: (§1) An “instant formulation”, known as the IF50, containing 50 g/L of the “technical” (i.e. unformulated) active ingredient was prepared by dissolving the active ingredient in a mixture of organic solvents and emulsifier, details of which are provided in the table. This IF50 was then mixed with a small, variable amount of acetone to aid dissolution, before addition of a 1% v/v aqueous solution in water of the adjuvant Empicol ESC70 3EO (Sodium lauryl ether sulphate) and 1% v/v Ammonium sulphate, as the aqueous diluent, to form an aqueous spray solution which contains a predetermined concentration of the active ingredient (which varies depending on the application rate of the active ingredient to the plants).
(§2) The composition of the mixture of organic solvents and emulsifier used as a base for the instant formulation was as given above in Table IF.
(§3) This aqueous spray solution was then sprayed onto the plants after about 21 days of cultivation. The plants were grown from seeds sown in standard soil, placed in a glasshouse under controlled conditions (at 24/18° C., day/night; 14 hours light; 65% humidity). After spray application the plants were then grown on in a glasshouse under the same conditions and watered twice daily. The test was evaluated at 21 days (100=total damage to plant; 0=no damage to plant).
(§4) Ipomoea hederacea (IPOHE), Amaranthus palmeri (AMAPA), Lolium perenne (LOLPE), Eleusine indica (ELEIN), Echinochloa crus-gaffi (ECHCG), Conyza canadensis (ERICA)

Assay [2] deals with Conyza canadensis (ERICA). Description: Post-emergence efficacy, Method C. Particulars: 400 g/Ha, evaluated at 21 days, 100=total damage to plant, 0=no damage. The procedure:
as §1, §2, §3, §4

Assay [3] has as its system Echinochloa crus-gaffi (ECHCG). Description: Post-emergence efficacy, Method C. Particulars: 400 g/Ha, evaluated at 21 days, 100=total damage to plant, 0=no damage. The procedure:
as §1, §2, §3, §4

The test system of assay [4] is Eleusine indica (ELEIN). Description: Post-emergence efficacy, Method C. Particulars: 400 g/Ha, evaluated at 21 days, 100=total damage to plant, 0=no damage. On the procedure: as §1, §2, §3, §4
For assay [5], the system named is Ipomoea hederacea (IPOHE). Description: Post-emergence efficacy, Method C. Particulars: 400 g/Ha, evaluated at 21 days, 100=total damage to plant, 0=no damage. On the procedure: as §1, §2, §3, §4
Assay [6] deals with Lolium perenne (LOLPE). Description: Post-emergence efficacy, Method C. Particulars: 400 g/Ha, evaluated at 21 days, 100=total damage to plant, 0=no damage. On the procedure:
as §1, §2, §3, §4

For assay [7], the system named is Amaranthus retroflexus (AMARE). Description: Post-emergence efficacy, Method B. Particulars: read-out: Control of weed species after post-emergence application, AMARE. In a few lines:
(§5)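 Active ingredient, formulated as a 50 g/L instant formulation, was diluted in aqueous 1% v/v ammonium sulphate plus 1% v/v Empicol ESC70 and sprayed post-emergence on glasshouse plants after about 12 days' growth (24/18° C or 20/16° C, 16 h light, 65% humidity). Damage was scored 0 (none) to 100 (total).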

Assay [8] has as its system Chenopodium album (CHEAL). The experiment in a line: Post-emergence efficacy, Method B. Particulars: read-out: Control of weed species after post-emergence application, CHEAL. In short, it runs like this: as §5
Assay [9] has as its system Digitaria sanguinalis (DIGSA). Description: Post-emergence efficacy, Method B. Particulars: read-out: Control of weed species after post-emergence application, DIGSA. In a few lines:
as §5

Assay [10] concerns Echinochloa crus-galli (ECHCG). The experiment in a line: Post-emergence efficacy, Method B. Particulars: read-out: Control of weed species after post-emergence application, ECHCG. In a few lines: as §5
The test system of assay [11] is Eleusine indica (ELEIN). Description: Post-emergence efficacy, Method B. Particulars: read-out: Control of weed species after post-emergence application, ELEIN. In a few lines:
as §5

For assay [12], the system named is Euphorbia heterophylla (EPHHL). Description: Post-emergence efficacy, Method B. Particulars: read-out: Control of weed species after post-emergence application, EPHHL. In short, it runs like this: as §5
Assay [13] has as its system Ipomoea hederacea (IPOHE). The experiment in a line: Post-emergence efficacy, Method B. Particulars: read-out: Control of weed species after post-emergence application, IPOHE. In a few lines: as §5
For assay [14], the system named is Lolium perenne (LOLPE). Description: Post-emergence efficacy, Method B. Particulars: read-out: Control of weed species after post-emergence application, LOLPE. In short, it runs like this: as §5
Another assay relates to Setaria faberi (SETFA). The experiment in a line: Post-emergence efficacy, Method B. Particulars: read-out: Control of weed species after post-emergence application, SETFA. In a few lines:
as §5

A further assay deals with Brassica napus (BRSNN). Description: Pre-harvest desiccation of crop plants. Particulars: Table F, evaluated after 7 and 14 days (which not stated), 100=total damage to plant, 0=no damage. On the procedure: (§6) Seeds of a variety of test species were sown in standard loam based soil in pots. After cultivation from between 21 and 28 days (post-emergence) under controlled conditions in a glasshouse (at 24/16° C., day/night; 14 hours light; 65% humidity) for warm climate species and (at 20/16° C. day/night; 15 hours light; 65% humidity) for cool climate species.
(§7) The plants were sprayed with an aqueous spray solution derived from dissolving the technical active ingredient formula in a small amount of acetone and a special solvent and emulsifier mixture referred to as IF50 (11.12% Emulsogen EL360 TM+44.44% N-methylpyrrolidone+44.44% Dowanol DPM glycol ether), to create a 50 g/I solution which was then diluted to required concentration using a solution of 1% Empicol ESC70 (Sodium lauryl ether sulphate)+1% ammonium sulphate in water as diluent.
(§8) The delivery of the aqueous spray solution was via a laboratory track sprayer which delivered the aqueous spray composition at a rate of 200 litres per hectare, using a flat fan nozzle (Teejet 11002VS) and an application volume of 200 litre/ha (at 2 bar).
(§9) The test plants were then grown in a glasshouse under controlled conditions (at 24/16° C., day/night; 14 hours light; 65% humidity) for warm climate species and (at 20/16° C. day/night; 15 hours light; 65% humidity) for cool climate species and watered twice daily. After 7 and 14 days the test was evaluated (100=total damage to plant; 0=no damage to plant).
(§10) A value of n/t indicates not tested.
(§11) Glycine Max (GLXMA), Solanum turberosum (SOLTU), Gossypium hirsutum (GOSHI), Brassica napus (BRSNN), Helianthus annus (HELAN)

Another assay deals with Glycine Max (GLXMA). Description: Pre-harvest desiccation of crop plants. Particulars: Table F, evaluated after 7 and 14 days (which not stated), 100=total damage to plant, 0=no damage. On the procedure: as §6, §7, §8, §9, §10, §11
In a further assay the test system is Helianthus annus (HELAN). The experiment in a line: Pre-harvest desiccation of crop plants. Particulars: Table F, evaluated after 7 and 14 days (which not stated), 100=total damage to plant, 0=no damage. The procedure: as §6, §7, §8, §9, §10, §11

For the molecule `O=S(=O)([O-])C[n+]1ccc(-c2ncccn2)cn1` [Compound A3, (4-pyrimidin-2-ylpyridazin-1-ium-1-yl)methanesulfonate], in assay [1], the “Control of weed species after post-emergence application, AMAPA” value is given as 65. Further, the “Control of weed species after post-emergence application, ERICA” value in [2] was 100. Also, the “Control of weed species after post-emergence application, ECHCG” value in assay [3] came out at 13. Moreover, the “Control of weed species after post-emergence application, ELEIN” value with Eleusine indica (ELEIN) [4] was determined as 15. In addition, the “Control of weed species after post-emergence application, IPOHE” value in assay [5] is given as 83. For the same molecule, the “Control of weed species after post-emergence application, LOLPE” value in the assay on Lolium perenne (LOLPE) [6] was 25.
Take `Cl.O=S(=O)([O-])CC[n+]1ccc(-c2ccncc2)cn1` [Compound A27]: in [1], the “Control of weed species after post-emergence application, AMAPA” value worked out at 77. Besides, the “Control of weed species after post-emergence application, ERICA” value in assay [2] was determined as 65. The “Control of weed species after post-emergence application, ECHCG” value in assay [3] was 43. Further, the “Control of weed species after post-emergence application, ELEIN” value in the assay on Eleusine indica (ELEIN) [4] came to 80. Also, in assay [5], the “Control of weed species after post-emergence application, IPOHE” value was 90. Also, the “Control of weed species after post-emergence application, LOLPE” value in the assay on Lolium perenne (LOLPE) [6] is 68.
As to `O=C(O)CC[n+]1ccc(-c2cccnn2)cn1.[Cl-]` [Compound A138, 3-(4-pyridazin-3-ylpyridazin-1-ium-1-yl)propanoic acid chloride], the pest or weed control at 1000 g/ha (in assay [7]; in assay [8]; in assay [9]; in assay [10]; with Eleusine indica (ELEIN) [11]; in assay [12]) was 100% throughout. For the same molecule, the pest or weed control at 1000 g/ha came out at 40% in [13], 100% in the assay on Lolium perenne (LOLPE) [14] and 100% in the assay with Setaria faberi (SETFA). In addition, the “Post emergence dessication efficacy, BRSNN” value in the assay with Brassica napus (BRSNN) (150 g/Ha) was 63 and 98; in the assay on Brassica napus (BRSNN) (600 g/Ha) it was 96 and 100. Further, the “Post emergence dessication efficacy, GLXMA” value was 57 and 37 with Glycine Max (GLXMA) (50 g/Ha); 67 and 72 in the assay on Glycine Max (GLXMA) (150 g/Ha); 82 and 90 in the assay with Glycine Max (GLXMA) (600 g/Ha). Further, the “Post emergence dessication efficacy, HELAN” value in the assay on Helianthus annus (HELAN) (50 g/Ha), in the assay on Helianthus annus (HELAN) (150 g/Ha) and with Helianthus annus (HELAN) (600 g/Ha) was 100 in each case.
